Measurements: paper PMC12135181, “The mechanism of lineage-specific tRNA recognition by bacterial tryptophanyl-tRNA synthetase and its implications for inhibitor discovery” (Nucleic Acids Research, 2025)
Read-outs that look alike come from different tables or passages of the source.

Columns and labels:
EcTrpRS [1] = biological target: T1, EcTrpRS (Escherichia coli, UniProt P00954); test: Pyrophosphate (PPi) production assay; assay type: biochemical; details: 10 μM compound, average of three; for inhibition at 10 µM: read-out: Inhibitory rate of PPi production activity of EcTrpRS
T1 construct: hexahistidine tag (C); made in house; host or cells: Escherichia coli BL21(DE3)
Procedure: The inhibitory effects of various compounds of EcTrpRS were evaluated using a pyrophosphate (PPi) production assay. EcTrpRS was incubated with 10 μM (in 0.1% DMSO) of each compound for 10 min at room temperature. […] The mixture was incubated at 26°C for 45 min, after which 40 μl of malachite green reagent was added to terminate the reaction and develop color. Following an additional incubation of 10 min, the absorbance (A) was measured at 640 nm using a Synergy H1 microplate reader (BioTek). The absorbance of the reaction without adding a compound was designated as A1, the absorbance of the reaction without adding EcTrpRS was A0, and the absorbance of the reaction with the addition of a compound was AC. The inhibitory rates of compounds on enzyme activity were calculated as (A1 − AC)/(A1 − A0) × 100%. Each reaction was performed in triplicate.

EcTrpRS [2] = biological target: T1, EcTrpRS; test: Isothermal titration calorimetry (ITC) to EcTrpRS; assay type: binding
Procedure: (§1) The binding affinities of various compounds to EcTprRS were measured using a MicroCal VP-ITC microcalorimeter (MicroCal). Compounds at a concentration of 200 μM were titrated into 20 μM of EcTrpRS in PBS (phosphate buffered saline) buffer (137 mM NaCl, 2.7 mM KCl, 8 mM Na2HPO4, and 2 mM KH2PO4). The titration assays were conducted at 26°C, beginning with an initial injection of 0.4 μl, followed by 18 injections of 2 μl each, with an interval of 120 s between each injection. The dissociation constants (Kd) were calculated by fitting the calorimetric data to a one-site binding model using MicroCal PEAQ-ITC analysis software, with the reported errors in Kd values representing the curve fitting errors. All isothermal titration calorimetry (ITC) experiments were repeated at least twice, and the titrations of compounds to HcTrpRS were also performed for comparison.

EcTrpRS [3] = biological target: T1, EcTrpRS; assay type: binding
HcTrpRS = biological target: T2, HcTrpRS (Homo sapiens, UniProt P23381); test: Isothermal titration calorimetry (ITC) to HcTrpRS; assay type: binding
T2 construct: made in house
T2 sequence (P23381 1-471): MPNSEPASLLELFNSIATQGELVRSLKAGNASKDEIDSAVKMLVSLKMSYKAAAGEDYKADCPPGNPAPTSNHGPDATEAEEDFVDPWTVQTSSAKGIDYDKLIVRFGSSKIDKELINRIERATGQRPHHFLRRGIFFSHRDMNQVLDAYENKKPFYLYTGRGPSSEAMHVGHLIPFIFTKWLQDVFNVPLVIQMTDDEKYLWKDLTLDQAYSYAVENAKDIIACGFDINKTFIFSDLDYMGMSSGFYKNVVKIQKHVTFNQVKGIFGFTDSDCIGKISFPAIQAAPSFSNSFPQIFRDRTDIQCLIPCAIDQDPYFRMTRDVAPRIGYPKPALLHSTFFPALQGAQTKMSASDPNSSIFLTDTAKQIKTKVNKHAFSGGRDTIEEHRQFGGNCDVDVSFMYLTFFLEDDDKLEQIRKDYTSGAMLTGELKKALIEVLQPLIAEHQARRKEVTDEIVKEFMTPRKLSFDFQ
Procedure: as §1

[4] = no tRNA, no ATP, 26°C, PBS, read-out: Kd for binding to EcTrpRS (ITC)

| Compound | Inhibitory rate of PPi production activity of EcTrpRS (EcTrpRS [1]; 10 µM) | inhibition at 10 µM (EcTrpRS [1]) | Change of ΔTm of EcTrpRS with compound after addition of tRNA^Trp (EcTrpRS [3]) | further results |
| --- | --- | --- | --- | --- |
| Nc1ncnc2n[nH]c(-c3ccc(Oc4ccccc4)cc3)c12 [IBT4A] | nor did they exhibit considerable inhibitory rates |  |  | Inhibitory rate of PPi production activity of EcTrpRS (EcTrpRS [1]; listed as 8, 10 µM): < 5% |
| Nc1ncnc2c1c(-c1ccc(Oc3ccccc3)cc1)nn2[C@@H]1CCCNC1 [IBT6A] | nor did they exhibit considerable inhibitory rates |  |  | Inhibitory rate of PPi production activity of EcTrpRS (EcTrpRS [1]; listed as 6, 10 µM): 9% |
| N[C@@H](Cc1c[nH]c2ccccc12)C(=O)O [L-Trp, tryptophan] |  |  |  | Binding to EcTrpRS (ITC) (EcTrpRS [2]; in the presence of 200 μM N-piperidine ibrutinib): no binding; Kd (EcTrpRS [2]; [4]): 40200 ± 4800 nM |
| C=CC(=O)N1CCC[C@H](n2c(=O)n(-c3ccc(Oc4ccccc4)cc3)c3c(N)ncnc32)C1 [ONO-4059 analogue] |  | 38% | reduced |  |
| Nc1ncnc2c1c(-c1ccc(Oc3ccccc3)cc1)nn2C1CCCC1 [PCI-29732] | nor did they exhibit considerable inhibitory rates |  |  | Inhibitory rate of PPi production activity of EcTrpRS (EcTrpRS [1]; listed as 7, 10 µM): < 5% |
| C=CC(=O)N1CCC[C@@H](n2nc(-c3ccc(Oc4ccccc4)cc3)c3c(N)ncnc32)C1 [ibrutinib] |  | 12% |  | Inhibitory rate of PPi production activity of EcTrpRS (EcTrpRS [1]): nor did they exhibit considerable inhibitory rates; ΔTm of EcTrpRS (EcTrpRS [3]): did not produce significant changes |
| CN=C1NC(=O)[C@H]([C@H](C)c2c[nH]c3ccccc23)O1 [indolmycin] |  | 93% |  | Kd (EcTrpRS [2]; in the absence of ATP, read-out: Kd (binding affinity) to EcTrpRS (ITC)): 804 ± 54 nM; Kd (EcTrpRS [2]; in the presence of 1 mM ATP, read-out: Kd (binding affinity) to EcTrpRS (ITC)): 503 ± 31 nM |
| CC#CC(=O)N1CC[C@@H](n2c(=O)n(-c3ccc(Oc4ccccc4)cc3)c3c(N)ncnc32)C1 [tirabrutinib] |  | 50% | reduced | Binding affinity for HcTrpRS (ITC) (HcTrpRS): no binding affinities; Kd (EcTrpRS [2]; [4]): 4800 ± 200 nM |
| C=CC(=O)N1CCC[C@@H](n2c(=O)n(-c3ccc(Oc4ccccc4)cc3)c3c(N)nccc32)C1 [tolebrutinib] |  | 19% | reduced |  |
